# ChEMBL document CHEMBL1255512, “Pyrazolo[1,5-a]pyrimidine acetamides: 4-Phenyl alkyl ether derivatives as potent ligands for the 18 kDa translocator protein (TSPO)” (Bioorg Med Chem Lett, 2010)
# Test: Displacement of [3H]Ro151788 from CBR in rat […]
# Assay type: tissue-based
row,Ki [µM],Structure (SMILES)
1,> 10,CCN(CC)C(=O)Cc1c(-c2ccc(OCCF)cc2)nn2c(C)cc(C)nc12 [DPA-714]
2,> 10,CCN(CC)C(=O)Cc1c(-c2ccc(OC)cc2)nn2c(C)cc(C)nc12
3,> 10,CCC(C)N(C)C(=O)c1cc2ccccc2c(-c2ccccc2Cl)n1 (stereo not drawn) [PK-11195]
